# Experimental data: article PMC8748916, “Microbial enzymes induce colitis by reactivating triclosan in the mouse gastrointestinal tract” (Nature Communications, 2022)
# “And” between values parts separate entries of the source, which are not always exact repeats. Equal values may be shown once.
# How the values were obtained:
# [1] = LC-MS/MS of TCS and its metabolites in human stool and urine after use of TCS-containing personal care products; format: in vivo; settings: for TCS metabolites in human stool / TCS metabolites in human urine: Treatment TCS, individual subjects; for average molar concentration ratio: TCS-exposed subjects;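 for Profile in stool (%): molar share of summed TCS plus TCS-G plus TCS-sulfate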;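 for Profile in urine (%): molar share of summed TCS plus TCS-G plus TCS-sulfate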;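 for average molar concentration ratio: molar share of summed TCS plus TCS-G plus TCS-sulfate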
# From the text: To broaden our understanding of TCS metabolic profiles in the gut, we next analyzed TCS metabolism in human subjects. We utilized urine and stool samples from a previous study in which the recruited human subjects were first subjected to a washout period (no usage of TCS-containing products), then were randomly assigned to two groups that used personal care products like toothpaste with or without TCS for up to four months (see the scheme of the experiment in Fig. 1c)[15]. Previous data had established that humans are primarily exposed to TCS via toothpaste that provides a direct oral route to the gastrointestinal tract[16],[17].
# [2] = Antibiotic suppression of gut microbiota: TCS colonic metabolism in mice (80 ppm TCS diet, 4 weeks); format: in vivo; settings: 80 ppm TCS via diet 4 weeks; antibiotic cocktail vs none
# From the text: This antibiotic composition was used in previous studies by others[20],[21] and us[22],[23]. […] After another 4 weeks, the mice were sacrificed, and their tissues were collected for LC-MS/MS analysis.
# [3] = TCS colonic metabolism in conventional vs germ-free Swiss Webster mice; format: in vivo; settings: 6 h after oral gavage of 8 mg/kg TCS, individual mice
# [4] = LC-MS/MS profiling of TCS metabolism in mice (TCS via diet for 4 weeks); settings: for concentration of TCS, TCS-G, TCS-Sulfate: individual mice
# [5] = Antibiotic suppression of gut microbiota: kinetics of TCS colonic metabolism after one-time oral gavage; settings: within the 24-h period; 8 mg/kg TCS oral gavage
# [6] = treatment time 0 months (after washout)
structure (smiles),measurement,setting,value
"O=C(O)C1OC(Oc2cc(Cl)ccc2Oc2ccc(Cl)cc2Cl)C(O)C(O)C1O (centres unmarked) [TCS-G, triclosan-glucuronide]",Profile in urine (%),"[1]; TCS-exposed human subjects, n=7 urine samples",98.39%
same,Profile in stool (%),"[1]; TCS-exposed human subjects, n=23 stool samples",0.80%
same,TCS metabolites in human stool,[1]; [6],10.69 pmol/ g stool and 5.96 pmol/ g stool and < LOD and 10.80 pmol/ g stool
same,TCS metabolites in human urine,[1]; [6],18.4 nM urine and 3.47 nM urine and < LOD and 12.5 nM urine
same,TCS metabolites in human stool,[1]; treatment time 1 month,10.24 pmol/ g stool and 13.69 pmol/ g stool and < LOD (3×) and 2.81 pmol/ g stool
same,TCS metabolites in human urine,[1]; treatment time 1 month,626 nM urine
same,TCS metabolites in human stool,[1]; treatment time 2 months,3.18 pmol/ g stool and 2.97 pmol/ g stool and < LOD (2×) and 4.42 pmol/ g stool
same,TCS metabolites in human urine,[1]; treatment time 2 months,953 nM urine
same,TCS metabolites in human stool,[1]; treatment time 3 months,7.01 pmol/ g stool and 5.96 pmol/ g stool and < LOD (3×) and 6.49 pmol/ g stool
same,TCS metabolites in human urine,[1]; treatment time 3 months,771 nM urine
same,TCS metabolites in human stool,[1]; treatment time 4 months,7.57 pmol/ g stool and < LOD (3×) and 3.12 pmol/ g stool and 4.69 pmol/ g stool
same,TCS metabolites in human urine,[1]; treatment time 4 months,1037 nM urine and 70.9 nM urine and 1373 nM urine and 775 nM urine
same,average molar concentration ratio,[1]; human stool,0.8%
same,average molar concentration ratio,[1]; human urine,98.4%
same,change of concentration in the fecal content by antibiotic treatment,[2],sixfold
same,"tcs, tcs-G in colon digesta",[3]; CONV Swiss Webster mice,0.05 pmol/mg and 0.09 pmol/mg and 0.07 pmol/mg and 0.08 pmol/mg and 0.03 pmol/mg and 0.02 pmol/mg
same,"tcs, tcs-G in colon digesta",[3]; GF Swiss Webster mice,3.55 pmol/mg and 2.97 pmol/mg and 3.05 pmol/mg and 2.08 pmol/mg and 2.61 pmol/mg
same,"concentration of TCS, TCS-G, TCS-Sulfate","[4]; Cecum (digesta), 80 ppm TCS via diet 4 weeks",0.45 pmol/mg and 0.99 pmol/mg and 0.44 pmol/mg and 0.88 pmol/mg and 0.62 pmol/mg and 0.91 pmol/mg
same,"concentration of TCS, TCS-G, TCS-Sulfate","[4]; Colon digesta, 1 ppm TCS in diet 4 weeks",0 pmol/mg
same,"concentration of TCS, TCS-G, TCS-Sulfate","[4]; Colon digesta, 10 ppm TCS in diet 4 weeks",0.02 pmol/mg
same,"concentration of TCS, TCS-G, TCS-Sulfate","[4]; Colon digesta, 80 ppm TCS in diet 4 weeks",0.1 pmol/mg
same,"concentration of TCS, TCS-G, TCS-Sulfate","[4]; Feces, 1 ppm TCS in diet 4 weeks",0.06 pmol/mg
same,"concentration of TCS, TCS-G, TCS-Sulfate","[4]; Feces, 10 ppm TCS in diet 4 weeks",0.13 pmol/mg
same,"concentration of TCS, TCS-G, TCS-Sulfate","[4]; Feces, 80 ppm TCS in diet 4 weeks",0.35 pmol/mg and 0.43 pmol/mg
same,"concentration of TCS, TCS-G, TCS-Sulfate","[4]; Heart, 80 ppm TCS via diet 4 weeks",2.11 pmol/mg and 1.13 pmol/mg and 0.90 pmol/mg and 1.39 pmol/mg
same,"concentration of TCS, TCS-G, TCS-Sulfate","[4]; SI 1st section (digesta), 80 ppm TCS via diet 4 weeks",14.84 pmol/mg and 26.51 pmol/mg and 44.77 pmol/mg and 37.15 pmol/mg
same,"concentration of TCS, TCS-G, TCS-Sulfate","[4]; SI 2nd section (digesta), 80 ppm TCS via diet 4 weeks",56.00 pmol/mg and 24.46 pmol/mg and 19.60 pmol/mg and 25.12 pmol/mg and 26.25 pmol/mg and 17.70 pmol/mg and 32.78 pmol/mg and 21.27 pmol/mg and 57.45 pmol/mg and 7.43 pmol/mg
same,"concentration of TCS, TCS-G, TCS-Sulfate","[4]; SI 3rd section (digesta), 80 ppm TCS via diet 4 weeks",27.59 pmol/mg and 32.96 pmol/mg and 20.86 pmol/mg and 36.42 pmol/mg and 26.32 pmol/mg and 29.79 pmol/mg and 32.41 pmol/mg and 48.40 pmol/mg and 60.13 pmol/mg and 35.24 pmol/mg
same,"concentration of TCS, TCS-G, TCS-Sulfate","[4]; SI 4th section (digesta), 80 ppm TCS via diet 4 weeks",46.08 pmol/mg and 59.25 pmol/mg and 48.99 pmol/mg and 79.17 pmol/mg and 94.49 pmol/mg and 43.76 pmol/mg and 46.26 pmol/mg and 23.11 pmol/mg and 8.33 pmol/mg and 51.24 pmol/mg
same,share of TCS metabolites found,"[4]; digesta of the 4th section of the mouse small intestine, 80 ppm TCS via diet 4 weeks",55.4%
same,share of TCS metabolites found,"[4]; fecal content, 80 ppm TCS via diet 4 weeks",0.7%
same,increase of AUC in colon digesta by antibiotic treatment,[5],~ 200 fold
